Reference: publication PMC9179882 (Cancers, 2022)

What was measured:
[1] = system: 5′ETS (DNA, G4) GGGGGGCGGGTGGTTGGG; experiment: circular dichroism; details: 100 mM KCl, 10 mM potassium phosphate; pH 7.0, 25 °C; 10 µM DNA, 100 µM GA; positive band decreased, no induced CD
[2] = system: SW480 xenograft; experiment: SW480 xenograft study in NSG mice; format: in vivo, NOD scid gamma (NSG) mice
Experimental: NOD scid gamma (NSG) mice were purchased from CIBM-UGR and housed at the animal facility according to institutional guidelines (Approved Ethical Committee #152-CEEA-OH-2016). For xenograft generation, 1 × 10^5 SW480 cells in 100 μL PBS were subcutaneously injected into the flank of 8-week-old female mice. Treatment started when tumors reached ~20 mm^3. Mice were randomly divided into two groups of seven mice each and treated with either vehicle DMSO or 200 mg/kg of GA intraperitoneally every other day for 38 days. Animals were monitored every two days after cell injection until final time point when they were sacrificed, and tumors were dissected for further analyses. Specifically, tumor volumes were determined every two days using digital calipers according to the formula: In progress tumor volume = (π × length × width^2)/6 [12].
Fixation, paraffin-embedding, and sectioning of tumor samples were performed by the histopathology core service at the Centre for Genomics and Oncological Research (Granada, Spain). In order to evaluate the percentage of proliferating cells, tumor sections were immunostained with Ki67 and counterstained with hematoxylin and eosin (H&E) at Atrys Health (Barcelona, Spain). The staining was visualized using NDP.view2 Viewing software (Hamamatsu), and Ki67 coverage was quantified on ten different images per tumor using Fiji software. In order to measure BG4 signal, tumor sections were dewaxed and rehydrated following standard methods. Epitope retrieval was performed at 100 °C for 20 min with citrate buffer (citrate-based buffer pH 6.0) according to previous studies. […] Slides were then counterstained for 5 min with DAPI to visualize the cell nuclei. Antifade Mowiol (81381, Merck, Darmstadt, Germany) was used as mounting media. Images were acquired on a Confocal Zeiss LSM 710 inverted microscope with a 63× immersion objective. BG4 mean nuclear fluorescence intensity was quantified using Fiji software (N > 2000). Antibodies used are listed in Supplementary Table S1.
We investigated the activity of GA in a mouse xenograft model of CRC to determine if the in vitro activity of GA was paralleled in vivo. According to previous reports with SW480 cells, we executed xenograft studies by subcutaneous injection in NOD scid gamma (NSG) mice. Intraperitoneal treatment started when tumors reached ~20 mm^3 (35 days post-injection), and a therapeutic schedule with either a vehicle or 200 mg/kg of GA, every other day for 38 days, was explored based on previous studies. Initially, each group included seven animals but two mice from the control group were excluded because the tumors had developed late. Therefore, five mice were considered in the control group and seven in the GA-treated one. […] In particular, when comparing the tumor volume between control and treated animals at each time point by Student’s two-tailed t-test, significant differences were observed from the 23rd day after initiation of the treatment. Histopathological analyses of tumors from animals sacrificed at the ending point were also conducted. […] Furthermore, immunohistochemical assessment of the antigen Ki67 was used to estimate cell proliferation.

[3] = system: CMYC G4; experiment: TOPRO3 fluorescent intercalator displacement (FID) assay, CMYC G4; format: binding; details: GA 10 µM, relative to GA-free control, CMYC promoter G4
Experimental: G4-oligonucleotides listed in Supplementary Table S3 were purchased from Integrated DNA Technologies (Clareville, IA, USA). All of them were dissolved in G4s buffer (10 mM potassium phosphate, 100 mM potassium chloride at pH 7.0), heated at 95 °C for 10 min, slowly cooled to RT, and stored at 4 °C.
We used TOPRO3 (T3605, Thermo Scientific, MA, USA) as a fluorescent intercalator for FID assays. In particular, […] TOPRO3 was incubated with […] prefolded G4s and exposed to 10 µM GA in 96-well plates. TOPRO3 was excited at 642 nm, and emission profile was monitored between 650–800 nm with Infinite M200 Plate Reader (Tecan). Fluorescence values were calculated as follows: %Fluorescence = A/B × 100; where (A) is the fluorescence value in presence of GA, and (B) corresponds to the fluorescence value in GA-free controls. All assays were conducted in triplicate. The G4-oligonucleotides used in the current study are listed in Supplementary Table S3.

[4] = system: 5′ETS (DNA, G4) GGGGGGCGGGTGGTTGGG; experiment: UV-vis titration at 265 nm; details: 100 mM KCl, 10 mM potassium phosphate; pH 7.0, 25 °C; 5 µM DNA; GA to 1:20 DNA:GA
[5] = tumors at end point, 200 mg/kg GA

binding [1]: yes
TOPRO3 fluorescence percentage [3]: 84.3%
Kd [4]: 148 µM
Compound: O=C(O)c1cc(O)c(O)c(O)c1 [Gallic acid, 3,4,5-trihydroxybenzoic acid]
body weight reduction or adverse effects ([2]; 200 mg/kg GA i.p. every other day for 38 days): No body weight reduction or adverse effects such as tumor ulceration was observed
progression of tumor xenografts (tumor volume) ([2]; 200 mg/kg GA i.p. every other day for 38 days vs vehicle): robust blockade on the progression of tumor xenografts
damage to major organs ([2]; CRC xenografts treated with GA): without causing observable damage to major organs
5′ETS expression in tumors (qRT-PCR) ([2]; responder mice, 200 mg/kg GA): significantly downregulated
CMYC expression in tumors (qRT-PCR) ([2]; responder mice, 200 mg/kg GA): significantly downregulated
Ki67 coverage in tumor sections [2, 5]: coverage of Ki67 was significantly decreased
nuclear BG4 signal in tumor sections [2, 5]: significant increase in nuclear BG4 signal
